Experimental findings from US20230219965A1 (KSQ Therapeutics, Inc., priority 2020, published 2023) are described below.

In this test the target is USP1/UAF1 enzyme (Homo sapiens, UniProt O94782). Nature of the test: USP1/UAF1 deubiquitination assay (ubiquitin-rhodamine 110 substrate). It is filed as biochemical. To be noted: read-out: USP1 IC50 (Ub-Rho). On the procedure:
Certain Compounds of the Disclosure were assessed for USP1/UAF1 activity in a Ubiquitin Rhodamine assay modified from those described previously.
Deubiquitinase activity was measured using ubiquitin-rhodamine 110 as a substrate. Cleavage of the amide bond between rhodamine and the c-terminal glycine of ubiquitin yields an increase in fluorescence signal. The assay was conducted in 20 μl total volume of assay buffer (50 mM Tris-HCl, pH 7.8, 0.5 mM EDTA, 0.01% Bovine Serum Albumin, 1 mM DTT, 0.01% Tween-20), and 0.05 nM USP1/UAF1 enzyme. Reaction was initiated by addition of 150 nM Ubiquitin-rhodamine (Boston Biochem) substrate.
Compounds of the Disclosure, dissolved in DMSO were tested in dose response format, beginning at […].
The example compounds listed below were added to enzyme/assay buffer mix and incubated 10 min. Substrate mix was added, and reaction mix was read in kinetic mode for 30 min at Ex480/Em540 and IC50 response curves were plotted.
Data for all assay formats was calculated as percent inhibition compared with control wells. Percent inhibition was calculated using the following equation: % inhibition=100×[1−(X−min)/(max−min)], where X is the raw data readout, min is the average of the no enzyme control wells (n=32), max is the average of the DMSO control well (n=32). IC50 values were calculated using the standard four parameter curve fitting algorithm in either Prism GraphPad (La Jolla, Calif.) software, or Collaborative Drug Discovery (Burlingame, Calif.) CDD Vault. See Chem. Biol. 20(1): 55-62 (Jan. 24, 2013); Bioorg. Med. Chem. Lett. 23(20): 5660-5666 (Oct. 15, 2013).

Chain of USP1/UAF1 enzyme (O94782 whole entry): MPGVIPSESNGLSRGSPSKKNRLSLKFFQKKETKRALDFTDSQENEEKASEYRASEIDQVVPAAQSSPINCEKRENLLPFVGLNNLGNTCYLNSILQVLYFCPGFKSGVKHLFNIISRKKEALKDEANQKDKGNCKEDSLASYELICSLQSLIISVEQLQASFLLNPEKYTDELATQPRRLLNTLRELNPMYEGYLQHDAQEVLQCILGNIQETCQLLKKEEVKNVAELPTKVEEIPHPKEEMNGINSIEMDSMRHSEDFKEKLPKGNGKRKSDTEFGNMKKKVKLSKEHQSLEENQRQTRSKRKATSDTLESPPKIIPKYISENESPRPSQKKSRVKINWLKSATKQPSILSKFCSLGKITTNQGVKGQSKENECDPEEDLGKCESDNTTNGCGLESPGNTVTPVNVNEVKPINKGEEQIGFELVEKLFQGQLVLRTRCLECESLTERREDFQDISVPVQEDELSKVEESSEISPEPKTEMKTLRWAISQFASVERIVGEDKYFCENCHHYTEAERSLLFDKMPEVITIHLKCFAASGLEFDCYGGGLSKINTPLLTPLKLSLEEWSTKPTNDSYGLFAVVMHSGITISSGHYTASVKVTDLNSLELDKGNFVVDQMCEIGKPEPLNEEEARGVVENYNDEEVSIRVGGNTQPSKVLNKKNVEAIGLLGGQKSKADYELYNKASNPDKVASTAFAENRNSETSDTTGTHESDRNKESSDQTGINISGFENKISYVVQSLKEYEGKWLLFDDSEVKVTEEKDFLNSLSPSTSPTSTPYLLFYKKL
Chain of USP1/UAF1 enzyme (Q8TAF3 whole entry partner): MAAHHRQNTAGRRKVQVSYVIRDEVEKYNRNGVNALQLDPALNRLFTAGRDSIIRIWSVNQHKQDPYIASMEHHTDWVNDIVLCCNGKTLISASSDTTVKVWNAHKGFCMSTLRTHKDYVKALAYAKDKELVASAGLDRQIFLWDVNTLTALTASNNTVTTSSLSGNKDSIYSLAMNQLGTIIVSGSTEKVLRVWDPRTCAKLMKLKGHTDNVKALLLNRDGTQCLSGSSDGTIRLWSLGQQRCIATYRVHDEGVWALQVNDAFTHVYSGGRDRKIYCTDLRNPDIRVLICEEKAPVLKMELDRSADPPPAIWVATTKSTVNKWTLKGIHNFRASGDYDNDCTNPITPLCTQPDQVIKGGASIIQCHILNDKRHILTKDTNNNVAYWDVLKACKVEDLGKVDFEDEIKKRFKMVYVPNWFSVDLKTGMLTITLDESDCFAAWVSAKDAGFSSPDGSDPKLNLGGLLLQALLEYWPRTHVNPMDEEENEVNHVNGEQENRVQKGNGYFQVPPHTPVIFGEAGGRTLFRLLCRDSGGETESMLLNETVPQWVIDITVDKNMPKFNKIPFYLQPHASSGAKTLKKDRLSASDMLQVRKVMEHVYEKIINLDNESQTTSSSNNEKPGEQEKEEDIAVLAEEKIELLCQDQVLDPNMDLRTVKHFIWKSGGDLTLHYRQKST

With `CC(C)n1ncc(Cl)c1-c1cc2n(n1)CCC(=O)N2Cc1ccc(-c2ncnn3cccc23)c(Cl)c1` [Example 276], the half-maximal inhibitory concentration (IC50) lay in the range of 100 to 500 nM. As to `Cc1nc(-c2ccc(CN3C(=O)CCn4nc(-c5c(Cl)cnn5C(C)C)cc43)cc2Cl)cn1C` [Example 277], the IC50 was > 500 nM. Consider `Cc1ccnnc1-c1ccc(CN2C(=O)CCn3nc(-c4c(Cl)cnn4C(C)C)cc32)cc1Cl` [Example 278], for which the IC50 is > 500 nM. With `CC(C)n1ncc(Cl)c1-c1cc2n(n1)CCC(=O)N2Cc1ccc(-c2ncccc2OC(F)(F)F)c(Cl)c1` [Example 279], the half-maximal inhibitory concentration (IC50) was > 500 nM.

As to `Cc1ccn2ncnc(-c3ccc(CN4C(=O)CCn5nc(-c6c(Cl)cnn6C(C)C)cc54)cc3Cl)c12` [Example 280], the IC50 is > 500 nM. The value for `Cc1cc(-c2ccc(CN3C(=O)CCn4nc(-c5c(Cl)cnn5C(C)C)cc43)cc2Cl)n(C)n1` [Example 281] was > 500 nM. For `Cc1ccc(F)c(-c2ccc(CN3C(=O)CCn4nc(-c5c(Cl)cnn5C(C)C)cc43)cc2Cl)n1` [Example 282], the IC50 was > 500 nM.

For the compound `CC(C)n1ncc(Cl)c1-c1cc2n(n1)CCC(=O)N2Cc1ccc(-c2ncccc2C(F)(F)F)c(Cl)c1` [Example 283], the IC50 was > 500 nM. Take `Cc1ncc(-c2ccc(CN3C(=O)CCn4nc(-c5c(Cl)cnn5C(C)C)cc43)cc2Cl)n1C` [Example 284]: the IC50 is > 500 nM. For `COc1ccc(-c2ccc(CN3C(=O)CCn4nc(-c5c(Cl)cnn5C(C)C)cc43)cc2Cl)nc1` [Example 285], the IC50 is > 500 nM. For the compound `COc1ccnc(-c2ccc(CN3C(=O)CCn4nc(-c5c(Cl)cnn5C(C)C)cc43)cc2Cl)n1` [Example 286], the IC50 is > 500 nM. The value for `CC(C)n1ncc(Cl)c1-c1cc2n(n1)CCC(=O)N2Cc1ccc(-c2nn(C)cc2C#N)c(Cl)c1` [Example 287] was > 500 nM. The value for `Cc1nn(C)c(C)c1-c1ccc(CN2C(=O)CCn3nc(-c4c(Cl)cnn4C(C)C)cc32)cc1Cl` [Example 289] was > 500 nM; that for `COc1cn(C)nc1-c1ccc(CN2C(=O)CCn3nc(-c4c(Cl)cnn4C(C)C)cc32)cc1Cl` [Example 292] was 100 to 500 nM. The value for `COc1ccnnc1-c1ccc(CN2C(=O)CCn3nc(-c4c(Cl)cnn4C(C)C)cc32)cc1Cl` [Example 293] was > 500 nM; that for `COc1ncnc(C2CC2)c1-c1nc2n(n1)CCC(=O)N2Cc1ccc(-c2ncccc2OC(C)C)c(Cl)c1` [Example 295] was 100 to 500 nM.

For `CC(C)n1cc(F)nc1-c1ccc(CN2C(=O)CCn3nc(-c4c(Cl)cnn4C(C)C)cc32)cc1Cl` [Example 297], the IC50 was in the range of 100 to 500 nM. For `COc1c(C)ccnc1-c1ccc(CN2C(=O)CCn3nc(-c4c(Cl)cnn4C(C)C)cc32)cc1Cl` [Example 298] the value was 100 to 500 nM. For `CC(C)n1ncc(Cl)c1-c1cc2n(n1)CCC(=O)N2Cc1ccc(-c2nccc3c2N(C)CCO3)c(Cl)c1` [Example 299] the value was > 500 nM; for `COCc1cccnc1-c1ccc(CN2C(=O)CCn3nc(-c4c(Cl)cnn4C(C)C)cc32)cc1Cl` [Example 300], 100 to 500 nM.

As to `COc1cc(C)cnc1-c1ccc(CN2C(=O)CCn3nc(-c4c(Cl)cnn4C(C)C)cc32)cc1Cl` [Example 301], the IC50 was 100 to 500 nM. For `CC(C)Oc1cccnc1-c1ccc(CN2C(=O)CCn3nc(-c4c(Cl)cnn4C(C)C)nc32)cc1Cl` [Example 302] the value was 100 to 500 nM; for `CC(C)n1ccnc1-c1ccc(CN2C(=O)CCn3nc(-c4c(Cl)cnn4C(C)C)cc32)cc1Cl` [Example 303], 100 to 500 nM; for `COc1cccnc1-c1ccc(CN2C(=O)CCn3nc(-c4c(OC)ncnc4C4CC4)nc32)cc1Cl` [Example 306], 100 to 500 nM. For `COc1cccnc1-c1ccc(CN2C(=O)CCn3nc(-c4c(OC)ncnc4C4CC4)nc32)cc1F` [Example 308], the IC50 is 100 to 500 nM. As for `COc1cc(CN2C(=O)CCn3nc(-c4c(Cl)cnn4C(C)C)cc32)ccc1-c1ncccc1Cl` [Example 311], the concentration for half-maximal inhibition (IC50) was > 500 nM. The value for `COc1cccnc1-c1ccc(CN2C(=O)CCn3nc(-c4c(OC)ncnc4C4CC4)cc32)cc1Cl` [Example 313] was 100 to 500 nM; that for `CCNc1ccc(-c2ccc(CN3C(=O)CCn4nc(-c5c(Cl)cnn5C(C)C)cc43)cc2Cl)nn1` [Example 314] was > 500 nM; that for `CC(C)n1cnc(-c2ccc(CN3C(=O)CCn4nc(-c5c(Cl)cnn5C(C)C)cc43)cc2Cl)c1` [Example 315] was > 500 nM.

`CC(C)n1ncc(Cl)c1-c1cc2n(n1)CCC(=O)N2Cc1ccc(-c2nc(C(F)(F)F)ccc2F)c(Cl)c1` [Example 316]: the IC50 is 100 to 500 nM. Regarding `COc1cccnc1-c1ccc(CN2C(=O)CCn3nc(-c4c(OC)ncnc4C4CC4)cc32)cc1F` [Example 317], the IC50 lay in the range of 100 to 500 nM.

Consider `COc1cncnc1-c1ccc(CN2C(=O)CCn3nc(-c4c(Cl)cnn4C(C)C)cc32)cc1Cl` [Example 318], for which the IC50 was > 500 nM.

For the compound `COc1ccc(-c2ccc(CN3C(=O)CCn4nc(-c5c(Cl)cnn5C(C)C)cc43)cc2Cl)nn1` [Example 319], the IC50 was > 500 nM. With `CC(C)n1ncc(Cl)c1-c1cc2n(n1)CCC(=O)N2Cc1ccc(-c2ccn(S(=O)(=O)N(C)C)n2)c(Cl)c1` [Example 320], the IC50 fell in the range of 100 to 500 nM. For `CC(C)n1ncc(Cl)c1-c1nc2n(n1)CCC(=O)N2Cc1ccc(-c2ncccc2OCC(F)F)cc1` [Example 322] the value was 100 to 500 nM. For `CCn1cc(C(F)(F)F)nc1-c1ccc([C@@H](C)N2C(=O)CCn3nc(-c4c(C#N)cnn4C(C)C)cc32)cc1F` [Example 326, (R)-5-(4-(1-(4-(1-ethyl-4-(trifluoromethyl)-1H-imidazol-2-yl)-3-fluorophenyl)ethyl)-5-oxo-4,5,6,7-tetrahydropyrazolo[1,5-α]pyrimidin-2-yl)-1-isopropyl-1H-pyrazole-4-carbonitrile] the value was 100 to 500 nM; for `CCn1cc(C(F)(F)F)nc1-c1ccc(CN2C(=O)CCn3nc(-c4c(OC(F)F)cnn4C(C)C)cc32)cc1F` [Example 329, 2-(4-(difluoromethoxy)-1-isopropyl-1H-pyrazol-5-yl)-4-(4-(1-ethyl-4-(trifluoromethyl)-1H-imidazol-2-yl)-3-fluorobenzyl)-6,7-dihydropyrazolo[1,5-α]pyrimidin-5(4H)-one], 100 to 500 nM. The value for `CC(C)n1cc(C(F)(F)F)nc1-c1ccc(Cn2c(=O)ccn3nc(-c4c(OC(F)F)ncnc4C4CC4)nc23)cc1` [Example 344, 2-(4-cyclopropyl-6-(difluoromethoxy)pyrimidin-5-yl)-4-(4-(1-isopropyl-4-(trifluoromethyl)-1H-imidazol-2-yl)benzyl)-[1,2,4]triazolo[1,5-a]pyrimidin-5(4H)-one] was < 100 nM. With `CCn1cc(C(F)(F)F)nc1-c1cnc(CN2C(=O)CCn3nc(-c4c(Cl)cnn4C(C)C)cc32)nc1` [Example 354, 2-(4-chloro-1-isopropyl-1H-pyrazol-5-yl)-4-((5-(1-ethyl-4-(trifluoromethyl)-1H-imidazol-2-yl)pyrimidin-2-yl)methyl)-6,7-dihydropyrazolo[1,5-α]pyrimidin-5(4H)-one], the concentration for half-maximal inhibition (IC50) is > 500 nM.

Take `CCn1cc(C(F)(F)F)nc1-c1ccc(N(C)C2CCCc3nn(-c4ccccc4C(C)C)cc32)cc1F` (centres unmarked) [Example 356, N-(4-(1-ethyl-4-(trifluoromethyl)-1H-imidazol-2-yl)-3-fluorophenyl)-2-(2-isopropylphenyl)-N-methyl-4,5,6,7-tetrahydro-2H-indazol-4-amine]: the 50% inhibitory concentration (IC50) lay in the range of 100 to 500 nM.

Take `CCn1cc(C(F)(F)F)nc1-c1ccc(CC2NCCn3nc(-c4c(Cl)cnn4C(C)C)cc32)cc1` (stereo not drawn) [Example 359, 2-(4-chloro-1-isopropyl-1H-pyrazol-5-yl)-4-(4-(1-ethyl-4-(trifluoromethyl)-1H-imidazol-2-yl)benzyl)-4,5,6,7-tetrahydropyrazolo[1,5-α]pyrazine]: the IC50 was 100 to 500 nM. As to `CCn1cc(C(F)(F)F)nc1-c1ccc(CC2NCCn3nc(-c4c(OC)ncnc4C4CC4)cc32)cc1` (centres unmarked) [Example 361, 2-(4-cyclopropyl-6-methoxypyrimidin-5-yl)-4-(4-(1-ethyl-4-(trifluoromethyl)-1H-imidazol-2-yl)benzyl)-4,5,6,7-tetrahydropyrazolo[1,5-a]pyrazine], the concentration for half-maximal inhibition (IC50) was in the range of 100 to 500 nM. The value for `CC(CF)n1cc(C(F)(F)F)nc1-c1ccc(CN2C(=O)CCn3nc(-c4c(OC(F)F)ncnc4C4CC4)nc32)cc1` (centres unmarked) [Example 366, 2-(4-cyclopropyl-6-(difluoromethoxy)pyrimidin-5-yl)-4-(4-(1-(1-fluoropropan-2-yl)-4-(trifluoromethyl)-1H-imidazol-2-yl)benzyl)-6,7-dihydro-[1,2,4]triazolo[1,5-a]pyrimidin-5(4H)-one] was < 100 nM; that for `O=C1CCn2nc(-c3c(OC(F)F)ncnc3C3CC3)nc2N1Cc1ccc(-c2nc(C(F)(F)F)cn2CCF)cc1` [Example 367, 2-(4-cyclopropyl-6-(difluoromethoxy)pyrimidin-5-yl)-4-(4-(1-(2-fluoroethyl)-4-(trifluoromethyl)-1H-imidazol-2-yl)benzyl)-6,7-dihydro-[1,2,4]triazolo[1,5-a]pyrimidin-5(4H)-one] was < 100 nM.
